From patent US6479487B1, “6, 9-disubstituted 2-[trans-(4-aminocyclohexyl)amino] purines” (Aventis Pharmaceuticals Inc., priority 1998, dated 2002)
pIC50: −log10 of the molar value. “And” between values parts separate entries of the source, which are not always exact repeats. Identical values can stand only once. Counter-ions that a name gives are not always drawn. Like-named read-outs stand apart in the source and are kept apart here.

Columns and labels:
cdk2/cyclin E = target: T1, cdk2/cyclin E (Homo sapiens, UniProt P24941); assay: Cyclin-Dependent Kinase 2 Assay (cdk2/cyclin E, GST-Rb substrate); assay type: biochemical; conditions: recombinant cdk2/cyclin E, 10 μM ATP, 30 min at 30° C., several values in a cell = separate determinations, read-out: CDK-2 Inhibition IC50
T1 construct: made in house; host or cells: insect cells (baculovirus co-infection)
Procedure: Substrate: GST-Rb as described above for cdk4/cyclin D1
Assay conditions for cdk2/cyclin E were identical to those for cdk4/cyclin D1 including the substrate. The concentration of recombinant cdk2/cyclin E in the assay was 0.1 μg per 100 μl assay. Incubation was for 30 min at 30° C.

cdk4/cyclin D1 = target: T2, cdk4/cyclin D1 (Homo sapiens, UniProt P11802); assay: Cyclin-dependent Kinase 4 Assay (cdk4/cyclin D1, GST-Rb substrate); assay type: biochemical; conditions: cdk4/cyclin D1 insect cell lysate, 10 μM ATP, 30 min at 37° C., several values = separate determinations, read-out: CDK4 Inhibition IC50
T2 construct: made in house; host or cells: Sf9 insect cells (Bac-to-Bac baculovirus, pFastBac)
T2 sequence (P11802 whole entry): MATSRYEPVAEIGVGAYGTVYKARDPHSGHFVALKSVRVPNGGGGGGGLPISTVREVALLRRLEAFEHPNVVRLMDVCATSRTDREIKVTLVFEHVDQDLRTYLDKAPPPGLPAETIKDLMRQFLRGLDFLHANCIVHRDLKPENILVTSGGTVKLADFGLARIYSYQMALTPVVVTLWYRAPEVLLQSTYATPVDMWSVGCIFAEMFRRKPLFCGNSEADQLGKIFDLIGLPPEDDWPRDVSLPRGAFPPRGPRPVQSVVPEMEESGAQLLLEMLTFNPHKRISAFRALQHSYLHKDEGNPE
T2 sequence (P24385 whole entry partner): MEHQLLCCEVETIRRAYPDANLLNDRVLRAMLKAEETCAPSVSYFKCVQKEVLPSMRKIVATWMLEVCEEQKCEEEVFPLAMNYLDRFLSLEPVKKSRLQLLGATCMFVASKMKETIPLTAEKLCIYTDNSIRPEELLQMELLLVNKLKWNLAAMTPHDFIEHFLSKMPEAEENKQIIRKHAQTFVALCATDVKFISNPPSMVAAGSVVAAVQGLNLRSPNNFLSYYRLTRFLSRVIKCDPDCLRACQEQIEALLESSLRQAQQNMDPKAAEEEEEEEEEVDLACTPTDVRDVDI
Method in brief: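 IC50 against cdk4 measured by scintillation counting of bead-bound GST-Rb (0.5 μg) after filtration and four TNEN washes. Reaction was 30 min at 37 °C in HEPES pH 7.5 buffer with 10 mM MgCl2 and 1 mM EGTA. Enzyme source was 0.1 μg Sf9 lysate coinfected with cdk4 and cyclin D1.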

MDA-MB-231 = assay: In vitro tumor cell proliferation, MDA-MB-231; assay type: cell-based, human; conditions: sulforhodamine B or CyQUANT assay, many values given with an undefined *, read-out: In vitro Tumor Cell Proliferation (IC50, μM) Breast MDA-MB-231
Method in brief: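 Proliferation quantified by SRB staining of TCA-fixed cells after 3 days of drug plus 4 days with replenished drug, following overnight attachment at 37 °C.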

MDA-MB-435 = assay: In vitro tumor cell proliferation, MDA-MB-435; assay type: cell-based; conditions: values given with an undefined *, read-out: In vitro Tumor Cell Proliferation (IC50, μM) Breast MDA-MB-435
Method in brief: (§1)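 Growth was quantified by sulforhodamine B staining of TCA-fixed cells after 3 days of drug plus 4 more days with fresh drug, or by CyQUANT after 3 days of drug and freezing at −80° C. Counted viable cells were plated and incubated overnight at 37° C before drug.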

HT-29 = assay: In vitro tumor cell proliferation, HT-29; assay type: cell-based, human; conditions: many values given with an undefined *, read-out: In vitro Tumor Cell Proliferation (IC50, μM) Colon HT-29
Method in brief: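 Growth was quantified either with CyQUANT, plates frozen at −80° C after 3 days of drug, or by sulforhodamine B staining of TCA-fixed cells after 3 days of drug plus 4 days with fresh drug. Trypan blue-excluding HT-29 cells were plated overnight at 37° C before dosing.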

Colo-205 = assay: In vitro tumor cell proliferation, Colo-205; assay type: cell-based; conditions: values given with an undefined *, read-out: In vitro Tumor Cell Proliferation (IC50, μM) Colon Colo-205
Method in brief: as §1

A549 = assay: In vitro tumor cell proliferation, A549; assay type: cell-based, human; conditions: many values given with an undefined *, read-out: In vitro Tumor Cell Proliferation (IC50, μM) Lung A549
Method in brief: as §1

DMS-114 = assay: In vitro tumor cell proliferation, DMS-114; assay type: cell-based, human; conditions: many values given with an undefined *, read-out: In vitro Tumor Cell Proliferation (IC50, μM) Lung DMS-114
Method in brief: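 Human small cell lung carcinoma DMS-114 cells plated overnight, then drug-treated for 3 days, medium and drug renewed, and incubated 4 more days. Growth read by sulforhodamine B staining after TCA fixation; alternatively by CyQUANT after 3 days' drug exposure and freezing at −80 °C.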

PC-3 = assay: In vitro tumor cell proliferation, PC-3; assay type: cell-based, human; conditions: many values given with an undefined *, read-out: In vitro Tumor Cell Proliferation (IC50, μM) Prostate PC-3
Method in brief: as §1

DU145 = assay: In vitro tumor cell proliferation, DU145; assay type: cell-based, human; conditions: many values given with an undefined *, read-out: In vitro Tumor Cell Proliferation (IC50, μM) Prostate DU145
Method in brief: as §1

[1] = Homo sapiens, MDA-MB-231, MDA-MB-231
[2] = Homo sapiens, MDA-MB-435, MDA-MB-435
[3] = Homo sapiens, COLO 205, Colo-205

SMILES: CCCCCc1ccc(Nc2nc(N[C@H]3CC[C@H](N)CC3)nc3c2ncn3C2CCCC2)cc1 [Example 23, 2-[Trans-(4-aminocyclohexyl)amino]-6-[(4-pentyl)phenylamino]-9-cyclopentylpurine dihydrochloride]
- pIC50 (cdk2/cyclin E): 5.70 and 6.02 and 6.12
- pIC50 (cdk4/cyclin D1): 5.40
- IC50 (MDA-MB-231; [1]): 2.7 µM
- IC50 (MDA-MB-231; MDA-MB-231, dihydrochloride): 2.6 µM and 2.5 µM
- IC50 (MDA-MB-435; [2]): 3.1 µM
- IC50 (MDA-MB-435; MDA-MB-435, dihydrochloride): 3.5 µM and 3 µM and 3.3 µM
- IC50 (HT-29; HT-29, dihydrochloride): 2.4 µM and 2.3 µM
- IC50 (HT-29; Homo sapiens, HT-29, HT-29): 2.5 µM
- IC50 (Colo-205; Colo-205, dihydrochloride): 2.8 µM and 2.7 µM
- IC50 (Colo-205; [3]): 2.9 µM
- IC50 (A549; A549, dihydrochloride): 2.5 µM
- IC50 (A549; Homo sapiens, A549, A549): 2.3 µM
- IC50 (DMS-114; DMS-114, dihydrochloride): 2.1 µM
- IC50 (DMS-114; Homo sapiens, DMS-114, DMS-114): 2.6 µM
- IC50 (PC-3; Homo sapiens, PC-3, PC-3): 3.1 µM
- IC50 (PC-3; PC-3, dihydrochloride): 2.7 µM and 2.5 µM and 2.2 µM
- IC50 (DU145; DU145, dihydrochloride): 3.2 µM and 3 µM
- IC50 (DU145; Homo sapiens, DU-145, DU145): 3.1 µM

SMILES: COCCCCNc1nc(N[C@H]2CC[C@H](N)CC2)nc2c1ncn2C1CCCC1 [Example 29, 2-[Trans-(4-aminocyclohexyl)amino]-6-(4-methoxybutylamino)-9-cyclopentylpurine dihydrochloride]
- pIC50 (cdk2/cyclin E): 7.96 and 7.40
- pIC50 (cdk4/cyclin D1): 6.00 and 6.15
- IC50 (MDA-MB-231; [1]): 4.2 µM
- IC50 (MDA-MB-231; MDA-MB-231, dihydrochloride): 3.6 µM
- IC50 (MDA-MB-435; [2]): 5.9 µM
- IC50 (MDA-MB-435; MDA-MB-435, dihydrochloride): 6 µM
- IC50 (HT-29; HT-29, dihydrochloride): 4.2 µM
- IC50 (HT-29; Homo sapiens, HT-29, HT-29): 4.4 µM
- IC50 (Colo-205; Colo-205, dihydrochloride): 4.6 µM
- IC50 (Colo-205; [3]): 2.8 µM
- IC50 (A549; A549, dihydrochloride): 2.6 µM
- IC50 (A549; Homo sapiens, A549, A549): 2.9 µM
- IC50 (DMS-114; DMS-114, dihydrochloride): 3.3 µM
- IC50 (DMS-114; Homo sapiens, DMS-114, DMS-114): 2.6 µM
- IC50 (PC-3; Homo sapiens, PC-3, PC-3): 3.2 µM
- IC50 (PC-3; PC-3, dihydrochloride): 3.5 µM
- IC50 (DU145; DU145, dihydrochloride): 2.9 µM
- IC50 (DU145; Homo sapiens, DU-145, DU145): 3 µM

SMILES: N[C@H]1CC[C@H](Nc2nc(NC3CCN(Cc4ccccc4)CC3)c3ncn(C4CCCC4)c3n2)CC1 [Example 33, 2-[Trans-(4-aminocyclohexyl)amino]-6-[4-(1-benzyl)piperidinylamino]-9-cyclopentylpurine trihydrochloride]
- pIC50 (cdk2/cyclin E): 6.72 and 6.85
- pIC50 (cdk4/cyclin D1): 6.39
- IC50 (MDA-MB-231; [1]): 0.17 µM
- IC50 (MDA-MB-231; MDA-MB-231, trihydrochloride): 0.21 µM
- IC50 (MDA-MB-435; [2]): 0.26 µM
- IC50 (MDA-MB-435; MDA-MB-435, trihydrochloride): 0.28 µM
- IC50 (HT-29; HT-29, trihydrochloride): 0.21 µM
- IC50 (HT-29; Homo sapiens, HT-29, HT-29): 0.19 µM
- IC50 (Colo-205; [3]): 0.18 µM
- IC50 (A549; Homo sapiens, A549, A549): 0.12 µM
- IC50 (DMS-114; DMS-114, trihydrochloride): 0.13 µM
- IC50 (DMS-114; Homo sapiens, DMS-114, DMS-114): 0.19 µM
- IC50 (PC-3; Homo sapiens, PC-3, PC-3): 0.2 µM
- IC50 (PC-3; PC-3, trihydrochloride): 0.18 µM
- IC50 (DU145; Homo sapiens, DU-145, DU145): 0.15 µM
